For one data set, the system named is Plasmodium falciparum. Nature of the data set: Antimalarial activity against chloroquine and mefloquine-resistant Plasmodium falciparum Dd2 after 48 hrs by SYBR Green I assay. The data set is classed as functional.
Data set [1] is described as follows: Cytotoxicity against human HepG2A16 cells after 24 hrs by MTT assay. In kind it is cell-based. The settings on record: read-out: LD50. Background: Tetrazolium assays rely on reduction of a dye to a coloured formazan, in cell work by metabolically active cells.
The mark [2] stands for this setting: Plasmodium falciparum, Dd2, 48 h, read-out: IC50.

For orientation: IC50 means the concentration that inhibits the measured activity by half. For `CC(C)(C)C(=O)OCOP(=O)(OCOC(=O)C(C)(C)C)C1CCN(O)C(=O)C1` (centres undefined), the IC50 with Plasmodium falciparum (setting [2]) came out at 0.0274 µM. The CC50 at 24 h in data set [1] came out at 25.6 µM.
As to `CC(C)(C)C(=O)OCOP(=O)(OCOC(=O)C(C)(C)C)C1CCCN(O)C(=O)C1` (centres undefined), the IC50 in the data set with Plasmodium falciparum (setting [2]) stood at 2.24 µM. In addition, the CC50 at 24 h in data set [1] worked out at 20.1 µM.
Consider `CC(=O)N(O)CCCP(=O)(O)O`, for which the IC50 in the data set on Plasmodium falciparum (setting [2]) was found to be 0.893 µM.
As for `CC(=O)N(O)CCCP(=O)(OCOC(=O)C(C)(C)C)OCOC(=O)C(C)(C)C`, the IC50 in the data set with Plasmodium falciparum (setting [2]) worked out at 0.272 µM.
Still for that read-out and setting: the same measure for `O[C@@H](c1cc(C(F)(F)F)nc2c(C(F)(F)F)cccc12)[C@H]1CCCCN1` [(S,R)-MEFLOQUINE]: 0.092 µM.
In the case of `CCOP(=O)(OCC)C1CCN(OCc2ccccc2)C(=O)C1` (centres undefined), the IC50 result in the data set with Plasmodium falciparum was “Not Active”. Also, in data set [1], the CC50 at 24 h came out at 25.6 µM.

The record behind these values is ChEMBL document CHEMBL3399940, “Synthesis and antimalarial evaluation of prodrugs of novel fosmidomycin analogues” (Bioorg Med Chem Lett, 2015).
